The values below come from ChEMBL document CHEMBL1135706, “Design and synthesis of motilin antagonists derived from the [1-4] fragment of porcine motilin” (J Med Chem, 2002).

What is called EC50 is the concentration at which the effect is half-maximal. A higher EC50 goes with a need for much substance. As a reminder, the IC50 is the midpoint of a concentration-inhibition curve. Lower therefore signals greater potency.

“And” between values parts separate entries of the source, which are not always exact repeats. Equal entries are not always repeated. Bridge positions count the residues as written; N and C are the ends. Square brackets hold non-standard residues; d marks the D form. Peptide text beside a SMILES is read from it. * marks the point of attachment. Tyr(3-tBu) = CC(C)(C)c1cc(C[C@H](N)C(=O)O)ccc1O; Ahx = NCCCCCC(=O)O; GABA = NCCCC(=O)O; βAla = NCCC(=O)O; tBu = CC(C)(C)* Bounds are passed on as bounds.

The species entered for experiment [1] is Oryctolagus cuniculus. The experiment in a line: Concentration of compound causing 50% inhibition of the smooth muscle contractile activity. As to conditions: Muscle tissue. The format is functional, organism-based.
The target in the next experiment is Motilin receptor (Oryctolagus cuniculus, UniProt A5A4K8). Description: Inhibition of the motilin receptor (MTL-R).
Sequence of Motilin receptor (A5A4K8 whole entry): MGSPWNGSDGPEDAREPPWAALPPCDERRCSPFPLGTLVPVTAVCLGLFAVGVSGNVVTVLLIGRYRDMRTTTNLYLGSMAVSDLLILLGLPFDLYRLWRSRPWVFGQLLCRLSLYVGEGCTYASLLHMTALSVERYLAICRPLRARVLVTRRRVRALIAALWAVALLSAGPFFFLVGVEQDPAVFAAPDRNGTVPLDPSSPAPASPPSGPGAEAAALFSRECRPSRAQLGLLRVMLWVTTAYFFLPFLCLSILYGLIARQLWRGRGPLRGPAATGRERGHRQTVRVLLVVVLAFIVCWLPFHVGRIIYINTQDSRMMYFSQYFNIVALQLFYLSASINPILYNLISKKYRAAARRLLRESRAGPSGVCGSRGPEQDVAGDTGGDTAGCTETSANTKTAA
Experiment [2] is filed under the species Oryctolagus cuniculus. Description: pA2 (Contractile potency) is the negative logarithm of the molar concentration of antagonist causing a 2-fold shift to the right of the concentration response curve for motilin. The format is functional, organism-based. The following applies: read-out: pA2 (converted).

As for `CC(C)(C)c1cc(CC2NC(=O)[C@@H](NC(=O)C(N)Cc3ccccc3)CCCCNC(=O)CCNC2=O)ccc1O` (stereo not given in full), the EC50 in the experiment filed under Oryctolagus cuniculus [1] was greater than 100000 nM. On Motilin receptor, this molecule yielded a 50% inhibitory concentration (IC50) of 2100 nM. In the experiment filed under Oryctolagus cuniculus [2], the Kb was 2190 nM.

Consider `CC(C)(C)c1cc(C[C@@H]2NC(=O)[C@@H](NC(=O)[C@@H](N)Cc3ccccc3)CCCCNC(=O)CCNC2=O)ccc1O`, for which the EC50 in the experiment listed under Oryctolagus cuniculus [1] is greater than 100000 nM. Inhibition at Motilin receptor was half-maximal at 10 nM (IC50). Moreover, the Kb in the experiment filed under Oryctolagus cuniculus [2] is 42.7 nM.

For the molecule `CC(C)(C)c1cc(C[C@H]2NC(=O)[C@@H](NC(=O)[C@@H](N)Cc3ccccc3)CCCCNC(=O)CCNC2=O)ccc1O`, the EC50 in the experiment filed under Oryctolagus cuniculus [1] is greater than 100000 nM. The molecule further displayed an IC50 at Motilin receptor of 3100 nM. Besides, the Kb in the experiment listed under Oryctolagus cuniculus [2] was 5370 nM.

In turn, `CCC(C)Oc1ccc(C[C@@H]2NC(=O)[C@@H](NC(=O)[C@@H](N)Cc3ccccc3)CCCCNC(=O)CCNC2=O)cc1` (stereo not given in full) had an IC50 at Motilin receptor of 480 nM.

In turn, `CC(C)(C)c1cc(C[C@@H]2NC(=O)[C@@H](NC(=O)[C@@H](N)Cc3ccccc3)CCCCNC(=O)CCNC2=O)cc(C(C)(C)C)c1O` yielded a 50% effective concentration (EC50) in the experiment filed under Oryctolagus cuniculus [1] greater than 10000 nM. At Motilin receptor, the IC50 was 460 nM.

In turn, `CC(C)(C)Oc1ccc(C[C@@H]2NC(=O)[C@@H](NC(=O)[C@@H](N)Cc3ccccc3)CCCCNC(=O)CCNC2=O)cc1` (H-FKY(tBu)[βAla]; lactam 2-C) gave a concentration for a half-maximal effect (EC50) in the experiment filed under Oryctolagus cuniculus [1] greater than 100000 nM. At Motilin receptor, this molecule returned an IC50 of 7500 nM. Besides, in the experiment listed under Oryctolagus cuniculus [2], the Kb is 120000 nM.

In the experiment filed under Oryctolagus cuniculus [1], `N[C@@H](Cc1ccccc1)C(=O)N[C@H]1CCCCNC(=O)CCNC(=O)[C@H](Cc2ccc(O)cc2)NC1=O` (H-FKY[βAla]; lactam 2-C) showed an EC50 greater than 100000 nM. The concentration for half-maximal inhibition (IC50) against Motilin receptor was 25000 nM and 42000 nM. In addition, in the experiment filed under Oryctolagus cuniculus [2], the Kb is 89100 nM.

`CC(C)(C)c1cc(C[C@@H]2NC(=O)[C@@H](NC(=O)[C@@H](N)Cc3ccccc3)CCCCNC(=O)CNC2=O)ccc1O` (H-FK[Tyr(3-tBu)]G; lactam 2-C): in the experiment filed under Oryctolagus cuniculus [1], the EC50 was greater than 100000 nM. Moreover, the IC50 against Motilin receptor was 7 nM and 33 nM. Further, the Kb in the experiment listed under Oryctolagus cuniculus [2] was 46.8 nM.

For `CC(C)(C)c1cc(C[C@@H]2NC(=O)[C@@H](NC(=O)[C@@H](N)Cc3ccccc3)CCCCNC(=O)CCCCCNC2=O)ccc1O` (H-FK[Tyr(3-tBu)][Ahx]; lactam 2-C), the EC50 in the experiment filed under Oryctolagus cuniculus [1] is greater than 100000 nM. In addition, the IC50 against Motilin receptor is 17 nM and 65 nM. Further, the Kb in the experiment listed under Oryctolagus cuniculus [2] is 83.2 nM.

In the experiment listed under Oryctolagus cuniculus [1], `CC(C)(C)c1cc(C[C@@H]2NC(=O)[C@@H](NC(=O)[C@@H](N)Cc3ccccc3)CCCCNC(=O)CCCNC2=O)ccc1O` (H-FK[Tyr(3-tBu)][GABA]; lactam 2-C) registered a 50% effective concentration (EC50) greater than 100000 nM. In addition, on Motilin receptor, the IC50 is 33 nM and 59 nM. In the experiment listed under Oryctolagus cuniculus [2], the Kb is 34.7 nM.

In the experiment listed under Oryctolagus cuniculus [1], `CC(C)(C)c1cc(C[C@@H]2NC(=O)[C@@H](NC(=O)C(N)Cc3ccccc3)CCCCNC(=O)CCNC2=O)ccc1O` (single isomer, unassigned) gave an EC50 greater than 100000 nM. Besides, the IC50 against Motilin receptor was determined as 1800 nM. For the same molecule, the Kb in the experiment filed under Oryctolagus cuniculus [2] was 2000 nM.
